Laboratory results: article PMC9317316, “Synthesis and Evaluation of Some New 4H-Pyran Derivatives as Antioxidant, Antibacterial and Anti-HCT-116 Cells of CRC, with Molecular Docking, Antiproliferative, Apoptotic and ADME Investigations” (Pharmaceuticals, 2022)
“And” between values parts separate entries of the source, which are not always exact repeats. Equal entries are not always repeated. Where two headings read alike, the source gives them in different places.

Experiments:
[1] = DPPH radical scavenging assay; settings: for IC50: 0.03 to 1 mg/mL, 1 h, mean ± SD, triplicate, read-out: IC50 (mM) for DPPH Scavenging Potency
How it was run: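 Ethanolic DPPH mixed with samples at 0.03 to 1 mg/mL, kept 1 h at room temperature in darkness, then absorbance read at 519 nm against compound-free control. Scavenging percentage computed as (1 − Acompound/Acontrol) × 100; IC50 interpolated from scavenging-versus-concentration plot.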

[2] = Reducing power assay (FRAC, Fe3+ to Fe2+); settings: 0-1 mg/mL, absorbance 700 nm
How it was run: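 Oyaizu method: compound (0–1 mg/mL) incubated with 0.2 M phosphate buffer pH 6.6 and 1% K3Fe(CN)6 at 50 °C for 20 min, then TCA, centrifugation, and 0.1% FeCl3 added to supernatant. Absorbance read at 700 nm; EC50 expressed in mM, BHT as reference.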

B. cereus (ATCC 14579) [3] = experiment: Antibacterial agar diffusion method (inhibition zone); format: cell-based
Method: (§1) The results for the in vitro antibacterial properties of the synthesized compounds against five Gram-positive and four Gram-negative human-pathogenic strains, which were assessed by both the agar diffusion method (based on inhibition zone (IZ)) and the broth dilution bioassay (for the determination of the half-maximal inhibitory concentration (IC50) values), using ampicillin as the reference antibiotic drug, are shown in Table 2 and Table 3.
(§2) The antibacterial activity of all synthesized compounds was evaluated against the Gram-negative strains E. coli (ATCC 25966), K. pneumonia (ATCC 700603), P. aeruginosa (ATCC 27853) and S. enteric (ATCC 43972) and against the Gram-positive strains B. cereus (ATCC 14579), B. subtilis (ATCC 6633), E. faecalis (ATCC 29122), S. aureus (ATCC 25923) and S. epidermidis (ATCC 14990), using the agar diffusion method through measuring the appearance of the inhibition zone on the surface of the top agar, as reported by Berghe and Vlietinck. Ampicillin (10 µg/well) was used as the positive reference standard. Bacterial viability was also investigated by determining the colony-forming ability (CFU) of bacteria incubated at different time intervals without or with appropriate amounts of the compound, which were mixed with 2 ×10^7 CFU/mL in sterile BHI and incubated under shaking for 60 min at 37 °C. Samples were serially diluted into sterile BHI, streaked onto media agar plates and incubated for 24 h at 37 °C. The antibacterial potency of the tested compounds was expressed as the residual number of CFUs with reference to the initial inoculums. The results presented as the half-maximal (50 %) inhibitory concentration (IC50) values are the means of three different measurements.

B. subtilis (ATCC 6633) [4] = experiment: as above; format: cell-based
Method: as §1, §2

E. coli (ATCC 25966) [5] = experiment: as above; format: cell-based; settings: E. coil (ATCC 25966)
Method: as §1, §2

E. faecalis (ATCC 29122) [6] = experiment: as above; format: cell-based
Method: as §1, §2

[7] = test system: K. pneumonia (ATCC 700603); experiment: as above; format: cell-based
Method: as §1, §2

[8] = test system: P. aeruginosa (ATCC 27853); experiment: as above; format: cell-based
Method: as §1, §2

S. aureus (ATCC 25923) [9] = experiment: as above; format: cell-based
Method: as §1, §2

S. enteric (ATCC 43972) [10] = experiment: as above; format: cell-based
Method: as §1, §2

[11] = test system: S. epidermidis (ATCC 14990); experiment: as above; format: cell-based
Method: as §1, §2

B. cereus (ATCC 14579) [12] = experiment: Antibacterial viability (CFU) assay, IC50; format: cell-based; settings: Bacillus cereus, ATCC14579
Method: as §1, §2

B. subtilis (ATCC 6633) [13] = experiment: Antibacterial viability (CFU) assay, IC50; format: cell-based
Method: as §1, §2

E. coli (ATCC 25966) [14] = experiment: Antibacterial viability (CFU) assay, IC50; format: cell-based; settings: Escherichia coli, ATCC25966; E. coil (ATCC 25966)
Method: as §1, §2

E. faecalis (ATCC 29122) [15] = experiment: Antibacterial viability (CFU) assay, IC50; format: cell-based; settings: Enterococcus faecalis, ATCC29122
Method: as §1, §2

[16] = test system: K. pneumonia (ATCC 700603); experiment: Antibacterial viability (CFU) assay, IC50; format: cell-based; settings: Klebsiella pneumoniae, ATCC700603
Method: as §1, §2

[17] = test system: P. aeruginosa (ATCC 27853); experiment: Antibacterial viability (CFU) assay, IC50; format: cell-based; settings: Pseudomonas aeruginosa, ATCC27853
Method: as §1, §2

S. aureus (ATCC 25923) [18] = experiment: Antibacterial viability (CFU) assay, IC50; format: cell-based; settings: Staphylococcus aureus, ATCC25923
Method: as §1, §2

S. enteric (ATCC 43972) [19] = experiment: Antibacterial viability (CFU) assay, IC50; format: cell-based; settings: read-out: IC50
Method: as §1, §2

[20] = test system: S. epidermidis (ATCC 14990); experiment: Antibacterial viability (CFU) assay, IC50; format: cell-based; settings: Staphylococcus epidermidis, ATCC14990
Method: as §1, §2

HCT-116 cells = experiment: Cell viability (cytotoxicity, LDH release) assay; format: cell-based; settings: Homo sapiens, 24 h; for viability at 100 µg/mL: read-out: percent of viable cells
Method: The synthesized compounds were also examined at four concentrations (10, 25, 50 and 100 µg/mL) for their cytotoxic effects on human colorectal cancer HCT-116 cells after their incubation together for 24 h.
Cytotoxic potency was examined for a human colon cancer cell line HCT-116 (American Type Culture Collection; Manassas, VA, USA) using various amounts of each compound (10, 25, 50 and 100 µg). Samples were diluted in Dulbecco’s Modified Eagle’s Medium, consisting of 10% Fetal Bovine Serum, and added to cells grown and cultured for 24 h in a 5% CO2-humidified incubator at 37 °C. Then, the activity of lactate dehydrogenase released from damaged cells was determined in the collected supernatant aliquots using an ELISA endpoint assay (Benchmark Plus, Bio-Rad, Hercules, CA, USA). As positive and negative controls, respectively, 0.1% Triton X-100 in the assay medium and the assay medium only were used. Cell viability, shown as mean values ± SDs (n = 3), was expressed as a relative percentage of the OD values determined at 600 nm in compound-treated cells and the control.

[21] = Bacillus subtilis, ATCC6633, B. subtilis (ATCC 6633)
[22] = read-out: Mean IC50 (µM) of cytotoxicity
[23] = read-out: Mean IC50 (µg/mL) of cytotoxicity

SMILES | IC50 [1] [mM] | DPPH Radical Scavenging Effenciency (%) at 1 mg/mL [1] | EC50 [2] [µM] | IZ (mm) (B. cereus (ATCC 14579) [3]) | IZ (mm) (B. subtilis (ATCC 6633) [4]) | IZ (mm) (E. coli (ATCC 25966) [5]) | IZ (mm) (E. faecalis (ATCC 29122) [6]) | IZ (mm) [7] [mm] | IZ (mm) [8] [mm] | IZ (mm) (S. aureus (ATCC 25923) [9]) | IZ (mm) (S. enteric (ATCC 43972) [10]) | IZ (mm) [11] | IC50 (B. cereus (ATCC 14579) [12]) [µM] | IC50 (B. subtilis (ATCC 6633) [13]; [21]) [µM] | IC50 (E. coli (ATCC 25966) [14]) [µM] | IC50 (E. faecalis (ATCC 29122) [15]) [µM] | IC50 [16] [µM] | IC50 [17] [µM] | IC50 (S. aureus (ATCC 25923) [18]) [µM] | IC50 (S. enteric (ATCC 43972) [19]) [µM] | other results
CC1=C(C(=O)OCc2ccccc2)C(c2ccc(F)cc2)C(C#N)=C(N)O1 (centres unmarked) [4i, 6-Amino-5-cyano-4-(4-fluoro-phenyl)-2-methyl-4H-pyran-3-carboxylic acid benzyl ester] | 1.78 ± 0.115 | 26.05 ± 1.06% | 274 ± 39 | 14.50 ± 0.71 | 9.50 mm and 9.50 ± 0.71 mm | 5.5 ± 0.71 | 6.50 ± 0.71 | 6.5 ± 0.7 | 8.5 ± 0.7 | 9.50 ± 2.12 mm | 8.0 ± 1.4 | 11.50 ± 0.71 mm | 38 ± 1.37 | 23.6 to 36.8 | 82.6 ± 1.65 | 37.5 ± 1.37 | 79.9 ± 3.02 | 62 ± 2.2 | 40.2 ± 1.37 | 91.5 ± 2.74 | IC50 (B. subtilis (ATCC 6633) [13]; B. subtilis (ATCC 6633)): 31.6 ± 1.95 µM; IC50 [20]: 46 ± 0.96 µM; viability at 100 µg/mL (HCT-116 cells): 11 to 32.5%; IC50 (HCT-116 cells; [22]): 181 ± 12.4 µM; IC50 (HCT-116 cells; [23]): 66 ± 4.53 µg/mL; melting point: 124 to 126 °C
CC1=C(C(=O)OCc2ccccc2)C(c2ccccc2Cl)C(C#N)=C(N)O1 (centres unmarked) [4l, 6-Amino-4-(2-chloro-phenyl)-5-cyano-2-methyl-4H-pyran-3-carboxylic acid benzyl ester] | 0.919 ± 0.026 | 70.20% and 70.20 ± 1.70% | 801 ± 19 | 10.00 ± 1.41 | 11.50 ± 0.71 mm | 3.5 ± 0.7 | 6.00 ± 1.41 | 2.5 ± 0.7 | 4.5 ± 0.7 | 9.00 mm and 9.00 ± 1.41 mm | 4.0 ± 0.0 | 10.50 ± 0.71 mm | 33.2 ± 2.42 | 23.6 to 36.8 | 90.1 ± 2.63 | 37.8 ± 1.5 | 77.5 ± 7.08 | 72.7 ± 2.63 | 31.1 ± 0.55 | 77.6 ± 1.58 | IC50 (B. subtilis (ATCC 6633) [13]; B. subtilis (ATCC 6633)): 32.6 ± 1.5 µM; IC50 [20]: 33.4 ± 1.1 µM; viability at 100 µg/mL (HCT-116 cells): 11 to 32.5%; IC50 (HCT-116 cells; [22]): 93.4 ± 4.63 µM; IC50 (HCT-116 cells; [23]): 35.5 ± 1.77 µg/mL; melting point: 162 to 164 °C
CC1=C(C(=O)OCc2ccccc2)C(c2ccc(Cl)cc2Cl)C(C#N)=C(N)O1 (centres unmarked) [4m, 6-Amino-5-cyano-4-(2,4-dichloro-phenyl)-2-methyl-4H-pyran-3-carboxylic acid benzyl ester] | 0.421 ± 0.017 | 69.00% and 69.0 ± 2.83% | 506 ± 34 | 18.50 ± 0.71 | 21.50 ± 0.71 mm | 5.5 ± 0.71 | 20.50 ± 0.71 | 6.5 ± 0.7 | 9.5 ± 0.7 | 17.50 mm and 17.50 ± 0.71 mm | 8.5 ± 0.7 | 18.50 ± 0.71 mm | 35.8 ± 1.2 | 23.6 to 36.8 | 69.4 ± 2.89 | 35.3 ± 2.22 | 66.7 ± 2.41 | 60.9 ± 2.17 | 33.2 ± 1.01 | 61.8 ± 2.17 | IC50 (B. subtilis (ATCC 6633) [13]; B. subtilis (ATCC 6633)): 32.8 ± 2.05 µM; IC50 [20]: 35 ± 1.88 µM; viability at 100 µg/mL (HCT-116 cells): 11 to 32.5%; IC50 (HCT-116 cells; [22]): 89.3 ± 5.05 µM; IC50 (HCT-116 cells; [23]): 37.1 ± 2.1 µg/mL; melting point: 146 to 148 °C
Cc1[nH]nc2c1C(c1cccc(O)c1Cl)C(C#N)=C(N)O2 (centres unmarked) [5a, 6-Amino-4-(2-chloro-3-hydroxy-phenyl)-3-methyl-2,4-dihydro-pyrano[2,3-c]pyrazole-5-carbonitrile] | 0.826 ± 0.092 | 45.50 ± 2.12% | 363 ± 47 | 12.50 ± 0.71 | 12.50 ± 0.71 mm | 2.8 ± 0.21 | 10.50 ± 0.71 | 6.0 ± 1.4 | 5.5 ± 0.7 | 14.00 ± 1.40 mm | 4.5 ± 0.7 | 13.50 ± 0.71 mm | 62.43 ± 0.46 | 62.43 ± 0.46 | 110 ± 5.95 | 51.9 ± 1.39 | 96.5 ± 4.96 | 85.9 ± 3.3 | 43.9 ± 1.39 | 105 ± 1.32 | IC50 [20]: 54.8 ± 1.88 µM; viability at 100 µg/mL (HCT-116 cells): 11 to 32.5%; IC50 (HCT-116 cells; [22]): 189 ± 10.8 µM; IC50 (HCT-116 cells; [23]): 60 ± 3.28 µg/mL; melting point: 240 to 242 °C
COc1cc(OC)c(C2C(C#N)=C(N)Oc3n[nH]c(C)c32)c(OC)c1 (centres unmarked) [5b, 6-Amino-3-methyl-4-(2,4,6-trimethoxy-phenyl)-2,4-dihydro-pyrano[2,3-c]pyrazole-5-carbonitrile] | 1.78 ± 0.082 | 37.50 ± 2.12% | 467 ± 41 | 8.00 ± 1.41 | 8.50 ± 0.71 mm | 3.5 ± 0.71 | 9.75 ± 1.06 | 4.5 ± 0.7 | 6.5 ± 0.7 | 5.50 ± 0.71 mm | 7.5 ± 0.7 | 6.60 mm and 6.60 ± 0.57 mm | 42.6 ± 1.66 | 41.8 ± 1.23 | 117 ± 4.09 | 45.1 ± 1.87 | 110 ± 1.75 | 92.3 ± 1.46 | 39.1 ± 1.66 | 106 ± 2.92 | IC50 [20]: 50.1 ± 0.61 µM; viability at 100 µg/mL (HCT-116 cells): 11 to 32.5%; IC50 (HCT-116 cells; [22]): 97.9 ± 7.06 µM; IC50 (HCT-116 cells; [23]): 33.5 ± 2.42 µg/mL; melting point: 182 to 184 °C
